The conditions of data set [1]: standard conditions (room temperature, standard air pressure); cited from earlier work.
The conditions of data set [2]: standard conditions, worked out from 0.8 mmol and 2 g per mole.

SMILES strings stand for the structures.

For `[HH]` [hydrogen], the “maximum concentration at which hydrogen dissolves in water” value in data set [1] is given as “about 0.8 mmol”. In data set [2], the “hydrogen per liter of water at maximum dissolution” value was “about 1.6 mg per liter”.

The record behind these values is US9539282B2, “Therapeutic use of hydrogen molecules” (MAX-PLANCK-GESELLSCHAFT ZUR FORDERUNG DER WISSENSCHAFTEN …, priority 2012, dated 2017).
